For one assay, the system named is Hep-3B cells. Put plainly: Cellular assay: EPO secretion in Hep-3B cells. The following applies: 24 h, EPO secretion as percentage of control compound 7-[(4-Chloro-phenyl)-(5-methyl-isoxazol-3-ylamino)-methyl]-quinolin-8-ol; for Cellular % EPO Stimulation: compound at 100 μM (10 μM or 100 μM); for EPO secretion, % of control compound: Homo sapiens, Hep3B, read-out: Cellular % EPO Stimulation. The assay is classed as cell-based, human. The arrangement: EPO secretion, % of control compound: dose or concentration left out as unconfirmed.

Another assay deals with human PHD2181-417 (Homo sapiens (Human), UniProt Q9GZT9). Put plainly: PHD2 enzyme activity assay ([14C]-succinic acid production).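 Note: reaction ran 10 min with compound in Tris pH 7.5 buffer with catalase, DTT and ascorbate, labelled succinate freed of leftover 2-oxoglutarate by DNP precipitation, then beta counted.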 It counts as biochemical. The note with it: PHD2181-417 polypeptide, HIF-1α peptide 10 μM, [5-14C]-2-oxoglutaric acid, 30 min pre-incubation, tested 10 μM to 3 nM.

Structures are written as SMILES.

From patent US10851083B2, “Benzoimidazoles as prolyl hydroxylase inhibitors” (Janssen Pharmaceutica NV, priority 2008, dated 2020) come the findings set out here.

Chain of human PHD2181-417 (Q9GZT9 181-417): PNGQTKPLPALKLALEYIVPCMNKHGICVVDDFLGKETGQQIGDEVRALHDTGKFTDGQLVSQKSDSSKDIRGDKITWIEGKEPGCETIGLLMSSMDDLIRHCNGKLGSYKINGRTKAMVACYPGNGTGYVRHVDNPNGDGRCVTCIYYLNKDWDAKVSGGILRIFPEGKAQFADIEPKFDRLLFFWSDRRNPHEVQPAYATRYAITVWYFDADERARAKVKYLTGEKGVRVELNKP

For `O=C(O)c1cnn(-c2nc3ccccc3[nH]2)c1` [Example 1, 1-(1H-Benzoimidazol-2-yl)-1H-pyrazole-4-carboxylic Acid], in the assay with Hep-3B cells, the “Cellular % EPO Stimulation” value stood at 7.1%.

Turning to `O=C(O)c1cnn(-c2nc3cc(C(F)(F)F)ccc3[nH]2)c1` [Example 3, 1-(5-Trifluoromethyl-1H-benzoimidazol-2-yl)-1H-pyrazole-4-carboxylic Acid], the EPO secretion, % of control compound in the assay with Hep-3B cells was found to be 110%. `Cc1cc2nc(-n3cc(C(=O)O)cn3)[nH]c2cc1C` [Example 5, 1-(5,6-Dimethyl-1H-benzoimidazol-2-yl)-1H-pyrazole-4-carboxylic Acid]: in the assay with Hep-3B cells, the “Cellular % EPO Stimulation” value is given as 2.1%.

For the molecule `O=C(O)c1cnn(-c2nc3cc(Br)ccc3[nH]2)c1` [Example 6, 1-(5-Bromo-1H-benzoimidazol-2-yl)-1H-pyrazole-4-carboxylic Acid], in the assay on Hep-3B cells, the “Cellular % EPO Stimulation” value stood at 9.91%. The same measure, in the same setting: under `COc1ccc2[nH]c(-n3cc(C(=O)O)cn3)nc2c1` [Example 7, 1-(5-Methoxy-1H-benzoimidazol-2-yl)-1H-pyrazole-4-carboxylic Acid] stands 16.8%. Same read-out and setting: next, `O=C(O)c1cnn(-c2nc3c(Cl)cc(C(F)(F)F)cc3[nH]2)c1` [Example 8, 1-(4-Chloro-6-trifluoromethyl-1H-benzoimidazol-2-yl)-1H-pyrazole-4-carboxylic Acid]: 20.97%; `COc1cc2nc(-n3cc(C(=O)O)cn3)[nH]c2cc1OC` [Example 9, 1-(5,6-Dimethoxy-1H-benzoimidazol-2-yl)-1H-pyrazole-4-carboxylic Acid]: 4.26%.

With `Cc1ccc2[nH]c(-n3cc(C(=O)O)cn3)nc2c1C` [Example 10, 1-(4,5-Dimethyl-1H-benzoimidazol-2-yl)-1H-pyrazole-4-carboxylic Acid], the “Cellular % EPO Stimulation” value with Hep-3B cells is 10.7%. The same measure, in the same setting: next, `O=C(O)c1cnn(-c2nc3cc(OC(F)(F)F)ccc3[nH]2)c1` [Example 11, 1-(5-Trifluoromethoxy-1H-benzoimidazol-2-yl)-1H-pyrazole-4-carboxylic Acid]: 123.68%. In the case of `O=C(O)c1cnn(-c2nc3cc(-c4cccc(OCc5cccc(Cl)c5)c4)ccc3[nH]2)c1` [Example 12, 1-{5-[3-(3-Chloro-benzyloxy)-phenyl]-1H-benzoimidazol-2-yl}-1H-pyrazole-4-carboxylic Acid], the “Cellular % EPO Stimulation” value with Hep-3B cells is 8.76%. Still for that read-out and setting: next, `O=C(O)c1cnn(-c2nc3cc(-c4cccc(OCc5ccccc5Cl)c4)ccc3[nH]2)c1` [Example 13, 1-{5-[3-(2-Chloro-benzyloxy)-phenyl]-1H-benzoimidazol-2-yl}-1H-pyrazole-4-carboxylic Acid]: 18%. Turning to `O=C(O)c1cnn(-c2nc3cc(-c4cccc(OCc5ccc(Cl)cc5)c4)ccc3[nH]2)c1` [Example 14, 1-{5-[3-(4-Chloro-benzyloxy)-phenyl]-1H-benzoimidazol-2-yl}-1H-pyrazole-4-carboxylic Acid], the EPO secretion, % of control compound in the assay on Hep-3B cells amounted to 20.1%.

As for `O=C(O)c1cnn(-c2nc3cc(-c4cccc(OCc5ccccc5)c4)ccc3[nH]2)c1` [Example 15, 1-[5-(3-Benzyloxy-phenyl)-1H-benzoimidazol-2-yl]-1H-pyrazole-4-carboxylic Acid], the “Cellular % EPO Stimulation” value with Hep-3B cells is given as 10.77%. Regarding `O=C(O)c1cnn(-c2nc3cc(-c4ccc(OCc5ccccc5)cc4)ccc3[nH]2)c1` [Example 16, 1-[5-(4-Benzyloxy-phenyl)-1H-benzoimidazol-2-yl]-1H-pyrazole-4-carboxylic Acid], the “Cellular % EPO Stimulation” value in the assay with Hep-3B cells came out at 6.97%. Same read-out and setting: next, `O=C(O)c1cnn(-c2nc3cc(-c4cccc(C(F)(F)F)c4)ccc3[nH]2)c1` [Example 17, 1-[5-(3-Trifluoromethyl-phenyl)-1H-benzoimidazol-2-yl]-1H-pyrazole-4-carboxylic Acid]: 5.8%; `O=C(O)c1cnn(-c2nc3cc(-c4ccc(Cl)c(Cl)c4)ccc3[nH]2)c1` [Example 18, 1-[5-(3,4-Dichloro-phenyl)-1H-benzoimidazol-2-yl]-1H-pyrazole-4-carboxylic Acid]: 15.3%; `O=C(O)c1cn(-c2nc3cc(Br)ccc3[nH]2)nc1C(F)(F)F` [Example 19, 1-(5-Bromo-1H-benzoimidazol-2-yl)-3-trifluoromethyl-1H-pyrazole-4-carboxylic Acid]: 20.52%. Same read-out and setting: next, `Cc1nn(-c2nc3cc(Br)ccc3[nH]2)c(C)c1C(=O)O` [Example 21, 1-(5-Bromo-1H-benzoimidazol-2-yl)-3,5-dimethyl-1H-pyrazole-4-carboxylic Acid]: 7.24%; `O=C(O)c1cnn(-c2nc3cc(-c4ccc(O)cc4)ccc3[nH]2)c1` [Example 23, 1-[5-(4-Hydroxy-phenyl)-1H-benzoimidazol-2-yl]-1H-pyrazole-4-carboxylic Acid]: 6.49%. For the molecule `O=C(O)c1cnn(-c2nc3cc(-c4cccc(O)c4)ccc3[nH]2)c1` [Example 24, 1-[5-(3-Hydroxy-phenyl)-1H-benzoimidazol-2-yl]-1H-pyrazole-4-carboxylic Acid], the “Cellular % EPO Stimulation” value in the assay on Hep-3B cells is reported as 11.15%.

As for `O=C(O)c1cnn(-c2nc3cc(Cl)ccc3[nH]2)c1` [Example 25, 1-(5-Chloro-1H-benzoimidazol-2-yl)-1H-pyrazole-4-carboxylic Acid], the “Cellular % EPO Stimulation” value with Hep-3B cells is 71.87%. As to `Cc1c(Br)cc2nc(-n3cc(C(=O)O)cn3)[nH]c2c1C` [Example 26, 1-(5-Bromo-6,7-dimethyl-1H-benzoimidazol-2-yl)-1H-pyrazole-4-carboxylic Acid], the “Cellular % EPO Stimulation” value with Hep-3B cells amounted to 11.9%. In the case of `O=C(O)c1cnn(-c2nc3cc(OC(F)(F)F)cc(Br)c3[nH]2)c1` [Example 29, 1-(7-Bromo-5-trifluoromethoxy-1H-benzoimidazol-2-yl)-1H-pyrazole-4-carboxylic Acid], the EPO secretion, % of control compound in the assay with Hep-3B cells was determined as 57.5%. On the same count and under the same terms, next, `O=C(O)c1cnn(-c2nc3cc(C(F)(F)F)c(Cl)cc3[nH]2)c1` [Example 30, 1-(6-Chloro-5-trifluoromethyl-1H-benzoimidazol-2-yl)-1H-pyrazole-4-carboxylic Acid]: 129%. For the molecule `CC(C)Sc1cc2[nH]c(-n3cc(C(=O)O)cn3)nc2cc1C(F)(F)F` [Example 73, 1-(6-Isopropylsulfanyl-5-trifluoromethyl-1H-benzoimidazol-2-yl)-1H-pyrazole-4-carboxylic Acid], on human PHD2181-417, the “Enzyme pIC50” value is 7.2. Same read-out and setting: under `CC(C)Sc1cc2[nH]c(-n3cc(C(=O)O)cn3)nc2cc1OC(F)(F)F` [Example 80, 1-(6-Isopropylsulfanyl-5-trifluoromethoxy-1H-benzoimidazol-2-yl)-1H-pyrazole-4-carboxylic Acid] stands 7; under `CCCSc1cc2[nH]c(-n3cc(C(=O)O)cn3)nc2cc1OC(F)(F)F` [Example 81, 1-(6-Propylsulfanyl-5-trifluoromethoxy-1H-benzoimidazol-2-yl)-1H-pyrazole-4-carboxylic Acid], 7. For `CC(C)S(=O)(=O)c1cc2[nH]c(-n3cc(C(=O)O)cn3)nc2cc1C(F)(F)F` [Example 103, 1-[6-(Propane-2-sulfonyl)-5-trifluoromethyl-1H-benzoimidazol-2-yl]-1H-pyrazole-4-carboxylic Acid], the “Enzyme pIC50” value on human PHD2181-417 was found to be 7.4. Same read-out and setting: under `CCCS(=O)(=O)c1cc2[nH]c(-n3cc(C(=O)O)cn3)nc2cc1C(F)(F)F` [Example 104, 1-[6-(Propane-1-sulfonyl)-5-trifluoromethyl-1H-benzoimidazol-2-yl]-1H-pyrazole-4-carboxylic Acid] stands 7.5; under `CC(C)S(=O)(=O)c1cc2[nH]c(-n3cc(C(=O)O)cn3)nc2cc1OC(F)(F)F` [Example 105, 1-[6-(Propane-2-sulfonyl)-5-trifluoromethoxy-1H-benzoimidazol-2-yl]-1H-pyrazole-4-carboxylic Acid], 7.4. For the molecule `O=C(O)c1cnn(-c2nc3cc(C(F)(F)F)c(F)cc3[nH]2)c1` [Example 129, 1-(6-Fluoro-5-trifluoromethyl-1H-benzoimidazol-2-yl)-1H-pyrazole-4-carboxylic Acid], the EPO secretion, % of control compound with Hep-3B cells worked out at 70.8%. On to `CCCSc1cc2nc(-n3cc(C(=O)O)cn3)[nH]c2cc1F` [Example 152, 1-(6-Fluoro-5-propylsulfanyl-1H-benzoimidazol-2-yl)-1H-pyrazole-4-carboxylic Acid], for which, in the assay with Hep-3B cells, the EPO secretion, % of control compound came to 91.4%. Regarding `CC(C)Sc1cc2nc(-n3cc(C(=O)O)cn3)[nH]c2cc1F` [Example 153, 1-(6-Fluoro-5-isopropylsulfanyl-1H-benzoimidazol-2-yl)-1H-pyrazole-4-carboxylic Acid], the “Enzyme pIC50” value at human PHD2181-417 was found to be 6.9. Regarding `CCCS(=O)(=O)c1cc2nc(-n3cc(C(=O)O)cn3)[nH]c2cc1F` [Example 157, 1-(6-Fluoro-5-propylsulfonyl-1H-benzoimidazol-2-yl)-1H-pyrazole-4-carboxylic Acid], the “Enzyme pIC50” value on human PHD2181-417 was 7.4. The same measure, in the same setting: next, `CC(C)S(=O)(=O)c1cc2nc(-n3cc(C(=O)O)cn3)[nH]c2cc1F` [Example 158, 1-(6-Fluoro-5-isopropylsulfonyl-1H-benzoimidazol-2-yl)-1H-pyrazole-4-carboxylic Acid]: 7.3. Consider `Cc1ccc(CSc2cc3nc(-n4cc(C(=O)O)cn4)[nH]c3cc2Cl)cc1` [Example 169, 1-[6-Chloro-5-(4-methyl-benzylsulfanyl)-1H-benzoimidazol-2-yl]-1H-pyrazole-4-carboxylic Acid], for which the IC50 on human PHD2181-417 (read-out: Enzyme pIC50 (converted)) is 0.2 µM.
